# Laboratory results as given in patent publication US20200239530A1, “COMPOUNDS AND METHODS OF MODULATING PROTEIN DEGRADATION” (Vividion Therapeutics, Inc., priority 2017, published 2020).
# What was measured:
# Experiment in all cases: Cysteine liganding, probe competition
# Assay type in all cases: binding
# [1] = target: T1, ATG16L1 Autophagy-related protein 16-1 (Homo sapiens, UniProt Q676U5)
# T1 construct: 200 μL of lysate containing 5 mg/ml proteome was treated with 2 μL of 100× compound stock; endogenous in cells
# How it was run: (§1)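 Probe competition in native proteome: 5 mg/ml lysate, compound 1 hr 25° C, then desthiobiotin iodoacetamide (10 mM stock) 1 hr 25° C; acetone ppt, urea/DTT reduction, iodoacetamide alkylation, trypsin, streptavidin pull-down.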
# [2] = target: T2, KDSR 3-ketodihydrosphingosine reductase (Homo sapiens, UniProt Q06136)
# T2 construct: Cells were resuspended in cold PBS on ice and sonicated with a probe sonicator to achieve lysis; endogenous in cells
# T2 sequence (Q06136 26-332): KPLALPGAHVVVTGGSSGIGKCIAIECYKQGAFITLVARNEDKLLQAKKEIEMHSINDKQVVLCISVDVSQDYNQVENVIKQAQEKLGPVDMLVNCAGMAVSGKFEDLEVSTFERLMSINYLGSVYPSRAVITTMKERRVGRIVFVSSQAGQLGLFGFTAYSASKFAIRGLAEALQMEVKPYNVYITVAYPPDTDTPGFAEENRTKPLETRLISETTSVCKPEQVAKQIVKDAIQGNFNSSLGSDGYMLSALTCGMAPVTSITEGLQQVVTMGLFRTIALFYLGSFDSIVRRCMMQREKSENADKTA
# How it was run: as §1
# [3] = target: T3, NOC2L Nucleolar complex protein 2 homolog (Homo sapiens, UniProt Q9Y3T9)
# T3 construct: Cells were resuspended in cold PBS on ice and sonicated with a probe sonicator to achieve lysis; endogenous in cells
# How it was run: as §1
# [4] = target: T4, PIAS4 E3 SUMO-protein ligase PIAS4 (Homo sapiens, UniProt Q8N2W9); details: for Liganded: PIAS4 Res# 326, uniprot Q8N2W9
# T4 construct: Cells were resuspended in cold PBS on ice and sonicated with a probe sonicator to achieve lysis; endogenous in cells
# T4 sequence (Q8N2W9 1-510): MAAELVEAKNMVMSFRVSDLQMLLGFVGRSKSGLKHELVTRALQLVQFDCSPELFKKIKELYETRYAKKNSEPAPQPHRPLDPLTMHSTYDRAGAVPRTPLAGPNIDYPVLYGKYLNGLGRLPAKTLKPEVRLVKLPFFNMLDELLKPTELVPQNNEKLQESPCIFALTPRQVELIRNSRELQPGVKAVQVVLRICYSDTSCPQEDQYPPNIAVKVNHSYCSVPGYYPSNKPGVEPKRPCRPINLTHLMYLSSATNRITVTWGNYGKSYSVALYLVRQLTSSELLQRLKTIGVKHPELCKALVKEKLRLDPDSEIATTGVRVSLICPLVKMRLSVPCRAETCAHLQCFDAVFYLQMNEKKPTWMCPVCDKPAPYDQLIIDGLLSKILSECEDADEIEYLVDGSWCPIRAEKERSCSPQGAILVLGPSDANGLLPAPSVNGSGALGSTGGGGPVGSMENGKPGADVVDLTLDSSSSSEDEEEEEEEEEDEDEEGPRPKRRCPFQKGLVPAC
# How it was run: as §1
# RNF7 RING-box protein 2 = target: T5, RNF7 RING-box protein 2 (Homo sapiens, UniProt Q9UBF6)
# T5 construct: Cells were resuspended in cold PBS on ice and sonicated with a probe sonicator to achieve lysis; endogenous in cells
# T5 sequence (Q9UBF6 1-113): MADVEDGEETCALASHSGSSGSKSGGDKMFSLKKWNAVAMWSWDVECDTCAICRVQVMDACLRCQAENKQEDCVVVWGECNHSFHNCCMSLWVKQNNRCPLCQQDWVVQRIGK
# How it was run: as §1
# T1 sequence (Q676U5 whole entry): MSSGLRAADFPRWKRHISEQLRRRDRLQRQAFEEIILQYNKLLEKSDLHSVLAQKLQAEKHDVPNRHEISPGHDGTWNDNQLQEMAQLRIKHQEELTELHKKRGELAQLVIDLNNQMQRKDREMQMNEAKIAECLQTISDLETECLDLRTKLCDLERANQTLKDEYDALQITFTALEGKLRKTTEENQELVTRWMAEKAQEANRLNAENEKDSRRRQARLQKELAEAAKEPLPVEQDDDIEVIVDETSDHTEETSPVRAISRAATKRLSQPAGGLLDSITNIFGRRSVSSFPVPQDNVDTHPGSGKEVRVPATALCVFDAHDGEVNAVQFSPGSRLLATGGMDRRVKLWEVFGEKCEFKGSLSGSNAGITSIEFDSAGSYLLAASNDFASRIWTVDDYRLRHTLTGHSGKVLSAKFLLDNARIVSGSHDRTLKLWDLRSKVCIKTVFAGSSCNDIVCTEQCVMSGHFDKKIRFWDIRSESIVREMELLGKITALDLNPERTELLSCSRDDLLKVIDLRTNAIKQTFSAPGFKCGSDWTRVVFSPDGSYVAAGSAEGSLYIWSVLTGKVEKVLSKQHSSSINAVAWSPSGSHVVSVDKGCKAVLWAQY
smiles,measurement,setting,value
O=C(CCl)Nc1cc(C(F)(F)F)cc(C(F)(F)F)c1 [KBO3],100 Max,[1]; uniprot Q676U5,−47.09
same,100 ave,[1]; uniprot Q676U5,−47.09
same,500 Max,[1]; uniprot Q676U5,18.73
same,500 ave,[1]; uniprot Q676U5,18.73
same,100 ave,[2]; uniprot Q06136,−22.72
same,100 Max,"[2]; uniprot Q06136, in % (unit assumed)",−22.72
same,100 Max,[3]; uniprot Q9Y3T9,29.97
same,100 ave,[3]; uniprot Q9Y3T9,7.195
same,500 Max,[3]; uniprot Q9Y3T9,59.2
same,500 ave,[3]; uniprot Q9Y3T9,56.82
same,Liganded,[4],YES
same,KB03_100 uM_percent_inhibition,"[4]; UniProt Q8N2W9, 100 uM",80%
same,100 Max,[4]; uniprot Q8N2W9,35.5
same,100 ave,[4]; uniprot Q8N2W9,30.1
same,500 Max,[4]; uniprot Q8N2W9,87.0
same,500 ave,[4]; uniprot Q8N2W9,75.4
same,100 Max,RNF7 RING-box protein 2; uniprot Q9UBF6,20.4
same,100 ave,RNF7 RING-box protein 2; uniprot Q9UBF6,20.4
COc1ccc2c(c1)CCCN2C(=O)CCl [KB02],Liganded,"[1]; ATG16L1 Res# 145, uniprot Q676U5",YES
same,Liganded,"[2]; KDSR Res# 121, uniprot Q06136",YES
same,Liganded,"[3]; NOC2L Res# 585, uniprot Q9Y3T9",YES
same,Liganded,[4],YES
same,Liganded,"RNF7 RING-box protein 2; RNF7 Res# 88, uniprot Q9UBF6",YES
